From patent US4032625A, “Bone-seeking technetium-99m complex” (priority 1975, dated 1977)
Read-outs that look alike come from different tables or passages of the source.

Conditions: 2 Hrs

[85Sr] [^85 Sr]
% Dose in Whole Organ: Blood (0.01 mg/kg AEDP): 2.99 % Dose | % Dose in Whole Organ: Kidneys (0.01 mg/kg AEDP): 0.329 % Dose | % Dose in Whole Organ: Liver (0.01 mg/kg AEDP): 0.568 % Dose | % Dose in Whole Organ: Marrow (0.01 mg/kg AEDP): 0.465 % Dose | % Dose in Whole Organ: Muscle (0.01 mg/kg AEDP): 4.98 % Dose | % Dose in Whole Organ: W. Femur (0.01 mg/kg AEDP): 3.22 % Dose | % Dose in Whole Organ: W. Tibia (0.01 mg/kg AEDP): 2.71 % Dose | % Dose/1% Body weight: Blood (0.01 mg/kg AEDP): 0.427 % Dose/1% Body weight | % Dose/1% Body weight: Bone Ave (0.01 mg/kg AEDP): 10.33 % Dose/1% Body weight | % Dose/1% Body weight: Femur (0.01 mg/kg AEDP): 10.38 % Dose/1% Body weight | % Dose/1% Body weight: Kidneys (0.01 mg/kg AEDP): 0.567 % Dose/1% Body weight | % Dose/1% Body weight: Liver (0.01 mg/kg AEDP): 0.177 % Dose/1% Body weight | % Dose/1% Body weight: Marrow (0.01 mg/kg AEDP): 0.211 % Dose/1% Body weight | % Dose/1% Body weight: Muscle (0.01 mg/kg AEDP): 0.116 % Dose/1% Body weight | % Dose/1% Body weight: Pelvis (0.01 mg/kg AEDP): 10.66 % Dose/1% Body weight | % Dose/1% Body weight: Spine (0.01 mg/kg AEDP): 8.98 % Dose/1% Body weight | % Dose/1% Body weight: Tibia (0.01 mg/kg AEDP): 11.28 % Dose/1% Body weight | % Dose: Urine (0.01 mg/kg AEDP): 20.97 % Dose | % Dose in Whole Organ: Blood (0.01 mg/kg EHDP): 3.19 % Dose | % Dose in Whole Organ: Kidneys (0.01 mg/kg EHDP): 0.43 % Dose | % Dose in Whole Organ: Liver (0.01 mg/kg EHDP): 0.74 % Dose | % Dose in Whole Organ: Marrow (0.01 mg/kg EHDP): 0.42 % Dose | % Dose in Whole Organ: One Femur (0.01 mg/kg EHDP): 2.83 % Dose | % Dose/1%-body weight: Blood (0.01 mg/kg EHDP): 0.456 % Dose/1%-body weight | % Dose/1%-body weight: Femur (0.01 mg/kg EHDP): 9.70 % Dose/1%-body weight | % Dose/1%-body weight: Kidney (0.01 mg/kg EHDP): 0.655 % Dose/1%-body weight | % Dose/1%-body weight: Liver (0.01 mg/kg EHDP): 0.206 % Dose/1%-body weight | % Dose/1%-body weight: Marrow (0.01 mg/kg EHDP): 0.192 % Dose/1%-body weight | % Dose: Urine (0.01 mg/kg EHDP): 23.66 % Dose | % Dose in Whole Organ: Blood (0.01 mg/kg MDP): 3.27 % Dose | % Dose in Whole Organ: Kidneys (0.01 mg/kg MDP): 0.34 % Dose | % Dose in Whole Organ: Liver (0.01 mg/kg MDP): 0.65 % Dose | % Dose in Whole Organ: Marrow (0.01 mg/kg MDP): 0.53 % Dose | % Dose in Whole Organ: Muscle (0.01 mg/kg MDP): 5.69 % Dose | % Dose in Whole Organ: One Femur (0.01 mg/kg MDP): 3.46 % Dose | % Dose/1% Body weight: Blood (0.01 mg/kg MDP): 0.47 % Dose/1% body weight | % Dose/1% Body weight: Femur (0.01 mg/kg MDP): 13.93 % Dose/1% body weight | % Dose/1% Body weight: Kidneys (0.01 mg/kg MDP): 0.54 % Dose/1% body weight | % Dose/1% Body weight: Liver (0.01 mg/kg MDP): 0.16 % Dose/1% body weight | % Dose/1% Body weight: Marrow (0.01 mg/kg MDP): 0.24 % Dose/1% body weight | % Dose/1% Body weight: Muscle (0.01 mg/kg MDP): 0.13 % Dose/1% body weight | % Dose/1% Body weight: Pelvis (0.01 mg/kg MDP): 13.55 % Dose/1% body weight | % Dose/1% Body weight: Spine (0.01 mg/kg MDP): 12.78 % Dose/1% body weight | % Dose/1% Body weight: Tibia (0.01 mg/kg MDP): 7.14 % Dose/1% body weight | % Dose/1% body weight: Ave Bone (0.01 mg/kg MDP): 11.85 % Dose/1% body weight | % Dose: Urine (0.01 mg/kg MDP): 10.3 % Dose | % Dose in Whole Organ: Blood (0.05 mg/kg AEDP): 2.50 % Dose | % Dose in Whole Organ: Kidneys (0.05 mg/kg AEDP): 0.353 % Dose | % Dose in Whole Organ: Liver (0.05 mg/kg AEDP): 0.613 % Dose | % Dose in Whole Organ: Marrow (0.05 mg/kg AEDP): 0.486 % Dose | % Dose in Whole Organ: Muscle (0.05 mg/kg AEDP): 5.09 % Dose | % Dose in Whole Organ: W. Femur (0.05 mg/kg AEDP): 3.51 % Dose | % Dose in Whole Organ: W. Tibia (0.05 mg/kg AEDP): 3.15 % Dose | % Dose/1% Body weight: Blood (0.05 mg/kg AEDP): 0.357 % Dose/1% Body weight | % Dose/1% Body weight: Bone Ave (0.05 mg/kg AEDP): 12.34 % Dose/1% Body weight | % Dose/1% Body weight: Femur (0.05 mg/kg AEDP): 12.62 % Dose/1% Body weight | % Dose/1% Body weight: Kidneys (0.05 mg/kg AEDP): 0.551 % Dose/1% Body weight | % Dose/1% Body weight: Liver (0.05 mg/kg AEDP): 0.134 % Dose/1% Body weight | % Dose/1% Body weight: Marrow (0.05 mg/kg AEDP): 0.221 % Dose/1% Body weight | % Dose/1% Body weight: Muscle (0.05 mg/kg AEDP): 0.118 % Dose/1% Body weight | % Dose/1% Body weight: Pelvis (0.05 mg/kg AEDP): 11.44 % Dose/1% Body weight | % Dose/1% Body weight: Spine (0.05 mg/kg AEDP): 11.60 % Dose/1% Body weight | % Dose/1% Body weight: Tibia (0.05 mg/kg AEDP): 13.69 % Dose/1% Body weight | % Dose: Urine (0.05 mg/kg AEDP): 11.95 % Dose | % Dose in Whole Organ: Blood (0.05 mg/kg EHDP): 3.39 % Dose | % Dose in Whole Organ: Kidneys (0.05 mg/kg EHDP): 0.46 % Dose | % Dose in Whole Organ: Liver (0.05 mg/kg EHDP): 0.77 % Dose | % Dose in Whole Organ: Marrow (0.05 mg/kg EHDP): 0.61 % Dose | % Dose in Whole Organ: One Femur (0.05 mg/kg EHDP): 3.33 % Dose | % Dose/1%-body weight: Blood (0.05 mg/kg EHDP): 0.485 % Dose/1%-body weight | % Dose/1%-body weight: Femur (0.05 mg/kg EHDP): 11.51 % Dose/1%-body weight | % Dose/1%-body weight: Kidney (0.05 mg/kg EHDP): 0.616 % Dose/1%-body weight | % Dose/1%-body weight: Liver (0.05 mg/kg EHDP): 0.210 % Dose/1%-body weight | % Dose/1%-body weight: Marrow (0.05 mg/kg EHDP): 0.291 % Dose/1%-body weight | % Dose: Urine (0.05 mg/kg EHDP): 13.4 % Dose | % Dose in Whole Organ: Blood (0.05 mg/kg MDP): 3.66 % Dose | % Dose in Whole Organ: Kidneys (0.05 mg/kg MDP): 0.46 % Dose | % Dose in Whole Organ: Liver (0.05 mg/kg MDP): 0.71 % Dose | % Dose in Whole Organ: Marrow (0.05 mg/kg MDP): 0.53 % Dose | % Dose in Whole Organ: Muscle (0.05 mg/kg MDP): 5.89 % Dose | % Dose in Whole Organ: One Femur (0.05 mg/kg MDP): 2.53 % Dose | % Dose/1% Body weight: Blood (0.05 mg/kg MDP): 0.52 % Dose/1% body weight | % Dose/1% Body weight: Femur (0.05 mg/kg MDP): 9.10 % Dose/1% body weight | % Dose/1% Body weight: Kidneys (0.05 mg/kg MDP): 0.9 % Dose/1% body weight | % Dose/1% Body weight: Liver (0.05 mg/kg MDP): 0.22 % Dose/1% body weight | % Dose/1% Body weight: Marrow (0.05 mg/kg MDP): 0.24 % Dose/1% body weight | % Dose/1% Body weight: Muscle (0.05 mg/kg MDP): 0.14 % Dose/1% body weight | % Dose/1% Body weight: Pelvis (0.05 mg/kg MDP): 8.33 % Dose/1% body weight | % Dose/1% Body weight: Spine (0.05 mg/kg MDP): 6.75 % Dose/1% body weight | % Dose/1% Body weight: Tibia (0.05 mg/kg MDP): 4.94 % Dose/1% body weight | % Dose/1% body weight: Ave Bone (0.05 mg/kg MDP): 7.29 % Dose/1% body weight | % Dose: Urine (0.05 mg/kg MDP): 23.16 % Dose
